Source: the kinase profiling compilation of Christmann-Franck et al. (2016)

Key:
Assay in all cases: KINOMEscan competition binding
Conditions in all cases: compound 10.0 µM
MINK1 (human) = MINK1 (human) (UniProt Q8N4C8)
BRAF (human) = BRAF (human) (UniProt P15056)
MAP2K3 (human) = MAP2K3 (human) (UniProt P46734)
MARK3 (human) = MARK3 (human) (UniProt P27448)
[1] = tested on: EGFR (human), P00533 [747-751 del / S ins]
STK39 (human) = STK39 (human) (UniProt Q9UEW8)
PHKG1 (human) = PHKG1 (human) (UniProt Q16816)
Sequence of PHKG1 (human) (Q16816 whole entry, looked up): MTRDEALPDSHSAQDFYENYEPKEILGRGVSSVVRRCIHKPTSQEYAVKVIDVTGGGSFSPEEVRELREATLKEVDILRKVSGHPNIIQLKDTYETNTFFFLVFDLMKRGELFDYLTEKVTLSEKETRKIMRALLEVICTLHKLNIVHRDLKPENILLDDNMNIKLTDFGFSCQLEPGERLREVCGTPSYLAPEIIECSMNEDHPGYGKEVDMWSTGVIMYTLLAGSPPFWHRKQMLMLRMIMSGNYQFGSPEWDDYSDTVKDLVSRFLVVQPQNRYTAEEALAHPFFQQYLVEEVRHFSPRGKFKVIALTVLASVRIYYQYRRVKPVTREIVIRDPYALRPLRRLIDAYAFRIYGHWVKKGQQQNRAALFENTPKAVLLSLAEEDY

CSNK1A1L (human) = CSNK1A1L (human) (UniProt Q8N752)
CIT (human) = CIT (human) (UniProt O14578)
CSNK2A1 (human) = CSNK2A1 (human) (UniProt P68400)
WEE2 (human) = WEE2 (human) (UniProt P0C1S8)
Sequence of WEE2 (human) (P0C1S8 whole entry, looked up): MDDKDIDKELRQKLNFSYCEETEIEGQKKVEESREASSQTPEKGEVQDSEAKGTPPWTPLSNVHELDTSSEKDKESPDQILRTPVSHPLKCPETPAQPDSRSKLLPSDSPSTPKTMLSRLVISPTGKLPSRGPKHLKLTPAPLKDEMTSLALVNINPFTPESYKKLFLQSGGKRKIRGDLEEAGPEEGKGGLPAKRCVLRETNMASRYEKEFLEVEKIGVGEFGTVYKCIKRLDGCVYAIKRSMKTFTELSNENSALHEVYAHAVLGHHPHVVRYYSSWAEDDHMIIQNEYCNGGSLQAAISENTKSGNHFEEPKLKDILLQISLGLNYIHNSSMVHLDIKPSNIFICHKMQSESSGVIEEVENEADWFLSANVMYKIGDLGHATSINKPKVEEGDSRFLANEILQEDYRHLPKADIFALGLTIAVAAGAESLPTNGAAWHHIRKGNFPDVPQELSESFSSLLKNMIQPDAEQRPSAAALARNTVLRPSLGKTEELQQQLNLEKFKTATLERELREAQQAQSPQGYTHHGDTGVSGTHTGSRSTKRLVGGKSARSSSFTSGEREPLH

MAK (human) = MAK (human) (UniProt P20794)
NEK5 (human) = NEK5 (human) (UniProt Q6P3R8)
MAP3K9 (human) = MAP3K9 (human) (UniProt P80192)
ULK1 (human) = ULK1 (human) (UniProt O75385)
MAPK13 (human) = MAPK13 (human) (UniProt O15264)
FGFR2 (human) = FGFR2 (human) (UniProt P21802)
Sequence of FGFR2 (human) (P21802 whole entry, looked up): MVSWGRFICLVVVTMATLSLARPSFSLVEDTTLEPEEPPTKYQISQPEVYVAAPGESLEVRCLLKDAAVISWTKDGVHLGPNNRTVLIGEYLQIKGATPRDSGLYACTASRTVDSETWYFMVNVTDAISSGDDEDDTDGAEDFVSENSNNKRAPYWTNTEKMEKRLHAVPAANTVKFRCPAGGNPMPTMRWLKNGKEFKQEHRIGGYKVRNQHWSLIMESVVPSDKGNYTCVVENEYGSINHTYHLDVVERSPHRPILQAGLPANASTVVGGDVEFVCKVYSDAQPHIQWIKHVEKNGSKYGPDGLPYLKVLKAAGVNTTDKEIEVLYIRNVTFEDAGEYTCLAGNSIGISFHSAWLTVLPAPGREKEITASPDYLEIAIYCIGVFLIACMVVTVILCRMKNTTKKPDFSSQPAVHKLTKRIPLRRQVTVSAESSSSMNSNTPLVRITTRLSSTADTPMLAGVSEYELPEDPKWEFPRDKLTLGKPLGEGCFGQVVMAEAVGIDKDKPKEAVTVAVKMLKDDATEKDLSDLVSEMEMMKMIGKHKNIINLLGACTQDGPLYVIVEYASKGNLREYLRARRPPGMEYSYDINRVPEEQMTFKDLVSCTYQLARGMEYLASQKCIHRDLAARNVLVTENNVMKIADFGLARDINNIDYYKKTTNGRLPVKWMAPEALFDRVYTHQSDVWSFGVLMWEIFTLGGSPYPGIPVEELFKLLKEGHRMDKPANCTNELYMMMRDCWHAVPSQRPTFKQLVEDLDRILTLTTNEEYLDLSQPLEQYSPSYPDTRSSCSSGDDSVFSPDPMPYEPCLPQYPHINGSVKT

KIT (human) = KIT (human) (UniProt P10721)
DYRK1B (human) = DYRK1B (human) (UniProt Q9Y463)
PDPK1 (human) = PDPK1 (human) (UniProt O15530)
RPS6KA1 KD2 (human) = RPS6KA1 KD2 (human) (UniProt Q15418)
Sequence of RPS6KA1 KD2 (human) (Q15418 whole entry, looked up): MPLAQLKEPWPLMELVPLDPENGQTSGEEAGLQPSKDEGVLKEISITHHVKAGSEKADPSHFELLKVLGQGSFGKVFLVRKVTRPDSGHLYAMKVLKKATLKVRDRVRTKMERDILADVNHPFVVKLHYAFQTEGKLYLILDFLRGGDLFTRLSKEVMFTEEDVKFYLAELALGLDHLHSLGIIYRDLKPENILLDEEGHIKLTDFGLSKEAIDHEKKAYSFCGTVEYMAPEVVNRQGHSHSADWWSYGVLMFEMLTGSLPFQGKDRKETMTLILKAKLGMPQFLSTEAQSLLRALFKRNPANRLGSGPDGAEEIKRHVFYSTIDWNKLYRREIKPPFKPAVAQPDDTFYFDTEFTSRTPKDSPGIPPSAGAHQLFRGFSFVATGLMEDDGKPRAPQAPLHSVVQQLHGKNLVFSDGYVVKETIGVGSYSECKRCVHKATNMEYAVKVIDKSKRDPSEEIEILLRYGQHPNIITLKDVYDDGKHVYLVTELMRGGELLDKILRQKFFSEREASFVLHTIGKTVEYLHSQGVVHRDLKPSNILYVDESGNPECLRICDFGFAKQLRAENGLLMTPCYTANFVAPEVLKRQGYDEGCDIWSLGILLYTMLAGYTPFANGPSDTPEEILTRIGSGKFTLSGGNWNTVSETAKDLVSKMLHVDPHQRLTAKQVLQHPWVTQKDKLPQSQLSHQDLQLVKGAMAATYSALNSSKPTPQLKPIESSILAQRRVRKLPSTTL

SLK (human) = SLK (human) (UniProt Q9H2G2)
ROS1 (human) = ROS1 (human) (UniProt P08922)
[2] = biological target: JAK2 JH1 catalytic (human) (UniProt O60674)
TSSK1B (human) = TSSK1B (human) (UniProt Q9BXA7)
Sequence of TSSK1B (human) (Q9BXA7 whole entry, looked up): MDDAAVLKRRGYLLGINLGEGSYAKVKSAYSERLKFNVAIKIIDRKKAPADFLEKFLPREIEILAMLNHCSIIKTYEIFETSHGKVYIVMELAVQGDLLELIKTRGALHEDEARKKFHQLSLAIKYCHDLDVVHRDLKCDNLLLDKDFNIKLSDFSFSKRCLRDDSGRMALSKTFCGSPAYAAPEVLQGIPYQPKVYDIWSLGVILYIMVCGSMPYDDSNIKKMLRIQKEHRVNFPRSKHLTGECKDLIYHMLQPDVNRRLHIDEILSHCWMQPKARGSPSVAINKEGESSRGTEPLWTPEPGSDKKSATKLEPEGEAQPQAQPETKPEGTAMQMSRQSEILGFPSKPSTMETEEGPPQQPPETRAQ

SGK110 (human) = SGK110 (human) (UniProt P0C264)
Sequence of SGK110 (human) (P0C264 whole entry, looked up): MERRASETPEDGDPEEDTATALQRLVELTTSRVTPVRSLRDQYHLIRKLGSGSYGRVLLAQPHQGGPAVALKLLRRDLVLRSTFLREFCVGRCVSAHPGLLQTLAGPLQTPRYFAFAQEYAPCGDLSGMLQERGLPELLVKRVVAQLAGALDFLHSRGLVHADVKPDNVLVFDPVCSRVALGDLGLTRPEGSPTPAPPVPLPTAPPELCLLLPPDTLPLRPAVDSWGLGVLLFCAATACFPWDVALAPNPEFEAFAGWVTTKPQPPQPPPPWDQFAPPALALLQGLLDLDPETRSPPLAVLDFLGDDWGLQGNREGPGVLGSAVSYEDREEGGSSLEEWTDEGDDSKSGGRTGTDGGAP

MST4 (human) = MST4 (human) (UniProt Q9P289)
MAPK9 (human) = MAPK9 (human) (UniProt P45984)
Sequence of MAPK9 (human) (P45984 whole entry, looked up): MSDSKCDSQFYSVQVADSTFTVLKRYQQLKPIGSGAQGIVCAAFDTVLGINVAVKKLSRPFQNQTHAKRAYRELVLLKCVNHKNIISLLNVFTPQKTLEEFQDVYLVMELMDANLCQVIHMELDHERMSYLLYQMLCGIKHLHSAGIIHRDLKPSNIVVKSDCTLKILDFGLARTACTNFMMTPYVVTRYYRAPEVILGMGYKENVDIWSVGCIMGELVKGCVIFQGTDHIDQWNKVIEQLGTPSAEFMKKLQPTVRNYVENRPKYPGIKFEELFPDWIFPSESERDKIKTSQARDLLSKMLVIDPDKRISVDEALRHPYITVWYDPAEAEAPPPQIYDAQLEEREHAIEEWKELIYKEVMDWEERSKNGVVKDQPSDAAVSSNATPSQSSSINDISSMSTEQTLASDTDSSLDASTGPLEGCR

ULK3 (human) = ULK3 (human) (UniProt Q6PHR2)
Sequence of ULK3 (human) (Q6PHR2 whole entry, looked up): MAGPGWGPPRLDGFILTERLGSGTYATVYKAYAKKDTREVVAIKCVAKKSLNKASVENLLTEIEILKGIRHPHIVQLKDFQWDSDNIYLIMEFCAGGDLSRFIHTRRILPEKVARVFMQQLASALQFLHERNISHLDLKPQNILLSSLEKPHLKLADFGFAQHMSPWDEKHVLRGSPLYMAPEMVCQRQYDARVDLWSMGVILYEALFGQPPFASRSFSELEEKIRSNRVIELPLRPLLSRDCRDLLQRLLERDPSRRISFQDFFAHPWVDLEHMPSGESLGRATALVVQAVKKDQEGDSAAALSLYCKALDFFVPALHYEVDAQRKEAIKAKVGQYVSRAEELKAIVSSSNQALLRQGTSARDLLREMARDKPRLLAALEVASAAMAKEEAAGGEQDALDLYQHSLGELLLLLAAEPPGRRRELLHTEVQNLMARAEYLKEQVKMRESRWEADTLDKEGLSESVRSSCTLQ

STK32B (human) = STK32B (human) (UniProt Q9NY57)
CDK19 (human) = CDK19 (human) (UniProt Q9BWU1)
TNK1 (human) = TNK1 (human) (UniProt Q13470)
BMPR1B (human) = BMPR1B (human) (UniProt O00238)
WEE1 (human) = WEE1 (human) (UniProt P30291)
Sequence of WEE1 (human) (P30291 whole entry, looked up): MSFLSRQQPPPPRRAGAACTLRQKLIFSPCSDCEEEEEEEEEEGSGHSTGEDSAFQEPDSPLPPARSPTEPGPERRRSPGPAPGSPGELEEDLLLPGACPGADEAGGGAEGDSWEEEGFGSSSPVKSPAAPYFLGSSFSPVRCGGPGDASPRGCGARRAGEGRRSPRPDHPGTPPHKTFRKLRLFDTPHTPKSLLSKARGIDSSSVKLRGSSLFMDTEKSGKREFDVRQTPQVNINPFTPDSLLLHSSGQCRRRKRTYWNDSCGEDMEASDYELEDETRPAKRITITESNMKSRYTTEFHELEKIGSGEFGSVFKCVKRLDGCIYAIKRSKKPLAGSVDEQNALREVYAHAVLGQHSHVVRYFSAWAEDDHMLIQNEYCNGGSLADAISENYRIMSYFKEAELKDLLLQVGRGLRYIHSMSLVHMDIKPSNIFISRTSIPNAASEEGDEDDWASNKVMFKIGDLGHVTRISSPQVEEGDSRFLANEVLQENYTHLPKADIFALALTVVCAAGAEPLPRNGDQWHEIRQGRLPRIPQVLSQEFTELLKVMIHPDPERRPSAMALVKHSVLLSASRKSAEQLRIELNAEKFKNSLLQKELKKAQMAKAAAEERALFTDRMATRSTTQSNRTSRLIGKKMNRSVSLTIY

CDKL2 (human) = CDKL2 (human) (UniProt Q92772)
MKNK1 (human) = MKNK1 (human) (UniProt Q9BUB5)
TGFBR1 (human) = TGFBR1 (human) (UniProt P36897)
NUAK1 (human) = NUAK1 (human) (UniProt O60285)
EPHA2 (human) = EPHA2 (human) (UniProt P29317)
[3] = tested on: KIT (human), P10721 [V559D/V654A]

Structure (SMILES) | kinase still bound, per cent of control (MINK1 (human)) | kinase still bound, per cent of control (BRAF (human)) | kinase still bound, per cent of control (MAP2K3 (human)) | kinase still bound, per cent of control (MARK3 (human)) | kinase still bound, per cent of control [1] | kinase still bound, per cent of control (STK39 (human)) | kinase still bound, per cent of control (PHKG1 (human)) | kinase still bound, per cent of control (CSNK1A1L (human)) | kinase still bound, per cent of control (CIT (human)) | kinase still bound, per cent of control (CSNK2A1 (human)) | kinase still bound, per cent of control (WEE2 (human)) | kinase still bound, per cent of control (MAK (human)) | kinase still bound, per cent of control (NEK5 (human)) | kinase still bound, per cent of control (MAP3K9 (human)) | kinase still bound, per cent of control (ULK1 (human)) | kinase still bound, per cent of control (MAPK13 (human)) | kinase still bound, per cent of control (FGFR2 (human)) | kinase still bound, per cent of control (KIT (human)) | kinase still bound, per cent of control (DYRK1B (human)) | kinase still bound, per cent of control (PDPK1 (human)) | also measured
COc1ccc(N(C(=O)Oc2c(C)cccc2C)c2ccnc(Nc3ccc(N4CCN(C)CC4)cc3)n2)c(OC)c1 | 14% | 88% | 66% | 4.8% | 0% | 100% | 12% | 100% | 3.8% | 66% | 100% | 69% | 85% | 0.6% | 31% | 100% | 0.45% | 0.45% | 68% | 82% | kinase still bound, per cent of control (RPS6KA1 KD2 (human)): 65%; kinase still bound, per cent of control (SLK (human)): 0.1%; kinase still bound, per cent of control (ROS1 (human)): 0.8%; kinase still bound, per cent of control [2]: 35%; kinase still bound, per cent of control (TSSK1B (human)): 87%; kinase still bound, per cent of control (SGK110 (human)): 44%; kinase still bound, per cent of control (MST4 (human)): 33%; kinase still bound, per cent of control (MAPK9 (human)): 2.6%; kinase still bound, per cent of control (ULK3 (human)): 59%; kinase still bound, per cent of control (STK32B (human)): 1.1%; kinase still bound, per cent of control (CDK19 (human)): 100%; kinase still bound, per cent of control (TNK1 (human)): 0%; kinase still bound, per cent of control (BMPR1B (human)): 80%; kinase still bound, per cent of control (WEE1 (human)): 85%; kinase still bound, per cent of control (CDKL2 (human)): 0.5%; kinase still bound, per cent of control (MKNK1 (human)): 98%; kinase still bound, per cent of control (TGFBR1 (human)): 0.75%; kinase still bound, per cent of control (NUAK1 (human)): 30%; kinase still bound, per cent of control (EPHA2 (human)): 0%; kinase still bound, per cent of control [3]: 85%
COc1cc(N2CCN(C)CC2)ccc1Nc1ncc2c(n1)N(C)c1ccccc1C(=O)N2C | 100% | 100% | 100% | 100% | 100% | 23% | 100% | 100% | 100% | 100% | 100% | 100% | 100% | 100% | 2.9% | 100% | 100% | 100% | 100% | 100% | kinase still bound, per cent of control (RPS6KA1 KD2 (human)): 18%; kinase still bound, per cent of control (SLK (human)): 100%; kinase still bound, per cent of control (ROS1 (human)): 7.6%; kinase still bound, per cent of control [2]: 100%; kinase still bound, per cent of control (TSSK1B (human)): 100%; kinase still bound, per cent of control (SGK110 (human)): 30%; kinase still bound, per cent of control (MST4 (human)): 100%; kinase still bound, per cent of control (MAPK9 (human)): 100%; kinase still bound, per cent of control (ULK3 (human)): 100%; kinase still bound, per cent of control (STK32B (human)): 100%; kinase still bound, per cent of control (CDK19 (human)): 100%; kinase still bound, per cent of control (TNK1 (human)): 0.4%; kinase still bound, per cent of control (BMPR1B (human)): 100%; kinase still bound, per cent of control (WEE1 (human)): 100%; kinase still bound, per cent of control (CDKL2 (human)): 100%; kinase still bound, per cent of control (MKNK1 (human)): 100%; kinase still bound, per cent of control (TGFBR1 (human)): 100%; kinase still bound, per cent of control (NUAK1 (human)): 7.6%; kinase still bound, per cent of control (EPHA2 (human)): 100%; kinase still bound, per cent of control [3]: 100%
